# Experimental data reported in a melting point compilation (Tetko et al.).
# Peptide text beside a SMILES is read from it.
row,SMILES,melting point [°C]
1,O=[N+]([O-])c1ccc(-c2nc(-c3ccccc3)c(-c3ccccc3)[nH]2)cc1,243 to 246
2,O=S(=O)(Cl)c1c(Cl)cccc1Cl,53
3,CC1(O)CSC(C)(O)CS1 (configuration not stated),64 to 65
4,O=C(NC(Cc1ccco1)C(=O)O)OCC1c2ccccc2-c2ccccc21 (configuration not stated),130
5,O=c1cc(C(F)(F)F)nc2scc(-c3ccc(Br)cc3)n12,171
6,COc1cc([N+](=O)[O-])ccc1Br,104
7,COc1ccc(C(=O)C2=NN(c3ccccc3)C3C(=O)N(c4cc(Cl)ccc4Cl)C(=O)C23)cc1 (configuration not stated),240
8,COc1cc(O)cc(OC)c1OC,146 to 149
9,COc1ccc(C2(C(=O)O)CCCCC2)cc1,172 to 177
10,Fc1c(F)c(F)c(S)c(F)c1F,-24
11,OCc1cc(C(O)CNCCCCCCOCCCCc2ccccc2)ccc1O (configuration not stated),75.8
12,Fc1c(Cl)c(F)c(Br)c(F)c1Cl,58 to 59.5
13,COc1ccc(-c2ccccc2)cc1N,81 to 84
14,Cc1ccc([N+](=O)[O-])cc1C(=O)O,179
15,CC(=O)OCC(OC(C)=O)C(OC1OC(COC(C)=O)C(OC(C)=O)C(OC(C)=O)C1OC(C)=O)C(OC(C)=O)C(C#N)OC(C)=O (configuration not stated),132
16,NC(Cc1cc(F)ccc1F)C(=O)O (racemic),252 to 253
17,CCCCCCCCCCCCCCOCCOCCOCCOCCOCCOCCO,32.5
18,NCC(=O)NCC(=O)NCC(=O)NCC(=O)O (H-GGGG-OH),300
19,N#CCCN1C(=O)COc2ccc(Cl)cc21,131
20,c1ccc(-c2coc(-c3ccccc3)n2)cc1,103
21,O=C(O)C=Cc1ccccc1Br,215 to 216
22,Nc1ccc(Oc2ccc(Br)cc2)nc1,107 to 109
23,O=C(Cl)c1nnc(-c2ccccc2)o1,80 to 90

row,SMILES,melting point [°C]
1,O=S(=O)(Cl)c1cc(Cl)ccc1F,43
2,Clc1ccc(Cc2c(N=Cc3ccccc3Cl)n[nH]c2N=Cc2ccccc2Cl)cc1,199 to 201
3,Oc1cc2c(cc1O)CCN=C2,244 to 248
4,Cc1cccc(C)c1OCC(C)N (configuration not stated),204
5,CC(C)NC(=S)NC(C)C,144
6,CCC(CO)(CO)CO,60
7,OCc1cc(F)cc2c1OCOC2,73.2 to 73.9
8,O=C(O)c1cc(O)ccc1O,204 to 207
9,O=C1C=C(NCc2ccc(Cl)cc2)C(=O)c2ccccc21,230
10,CCCC(C(N)=O)n1nc2ccccc2n1 (configuration not stated),126
11,O=C(O)CCC(F)(F)C(F)(F)C(F)(F)F,38 to 39
12,Nc1cc(C(F)(F)F)cc(Br)c1N,60 to 62
13,Cc1cc(C(F)(F)F)n2nc(N)c(/N=N/c3ccccc3[N+](=O)[O-])c2n1,235
14,NCC(c1ccccc1)c1ccccc1,43 to 49
15,CCOc1ccc(CC#N)cc1,44 to 47
16,Cc1cc(-c2cc(C)n(C)n2)n[nH]1,154 to 156
17,COc1ccc(C(O)c2ccc(OC)cc2)cc1,70
18,Cc1ccc(S(=O)(=O)NN=Cc2coc(C=Cc3ccccc3)n2)cc1,177 to 179
19,CC(CO)C1=C(O)C(=O)C2=C(CC(O)C3C(C)(C)CCCC23C)C1=O (configuration not stated),186
20,O=[N+]([O-])c1ccc2c(c1)OCCOCCOCCOCCOCCO2,85 to 88
21,O=C(O)CC(F)(F)C(=O)O,142
22,Cc1nc(-c2ccc(Cl)cc2)sc1C(=O)Cl,180 to 183
23,NC(=O)Cc1nc(-c2ccc(F)cc2)cs1,182

row,SMILES,melting point [°C]
1,Cc1cc(C)n(CO)n1,109
2,Cc1cc(O)nc(C(C)C)n1,173
3,N#CC(C#N)=NNc1cc(Cl)cc(Cl)c1,192 to 194
4,Cc1c(N)cccc1C(F)(F)F,39
5,COc1cccc2onc(N)c12,140 to 142
6,O=C(Oc1c(F)c(F)c(F)c(F)c1F)c1csc(-c2cccnc2)n1,136 to 137
7,Oc1cc(O)nc(S)n1,240 to 255
8,COc1cc(C(c2ccc(C)o2)c2ccc(C)o2)c([N+](=O)[O-])cc1OC,98
9,CC12CCC3C(CCC45OC4C(=O)C=CC35O)C1CCC2=O (configuration not stated),201 to 203
10,O=[N+]([O-])c1ccc(OCC2CO2)cc1 (configuration not stated),54 to 55
11,CC(=O)c1sc2nc(-c3cccs3)cc(C(F)(F)F)c2c1N,171 to 172
12,O=Cc1cc(C(=O)O)ccc1F,152 to 153
13,O=[N+]([O-])c1ccc(-c2nnc(NC3=NCCN3)s2)cc1,239 to 241
14,Cc1cc(C)c2c(=O)n(-c3ccc(Br)cc3)c(S)nc2n1,335 to 337
15,O[C@@H]1CCCC[C@H]1NCc1ccccc1 (relative stereo),69 to 72
16,CCCCCCOc1ccc(O)cc1,46
17,Cc1ccc([N+](=O)[O-])cc1N=C=S,60 to 62
18,Cc1ccc(I)cc1,37.8
19,CSC(C)=NOC(=O)N(C)SN(C)C(=O)ON=C(C)SC,173
20,Cc1onc(-c2ccccc2Cl)c1C(=O)Cl,42
21,O=C(O)c1cc(I)ccc1Cl,161 to 163
22,Cc1ccc(O)c(C(C)C)c1,36.5
23,CC(C)(C)OC(=O)NCc1ncccc1F,56 to 58

row,SMILES,melting point [°C]
1,Cc1ccncc1C=NNc1ccc([N+](=O)[O-])cc1[N+](=O)[O-],156
2,C/C=C/C(=O)N1C(=O)OC[C@@H]1C(C)C,56
3,ON=Cc1ccc(OC(F)(F)F)cc1,41
4,Cc1nnsc1C(=O)O,185
5,COc1cc(OC)c(C(C)=O)c(OC)c1,103
6,O=Cc1c[nH]c2ccc([N+](=O)[O-])cc12,300
7,Nc1ccccc1COc1ccccc1,78
8,CC(C)(C)c1ccc(-c2nnc(S)n2Cc2ccco2)cc1,156 to 158
9,NS(=O)(=O)c1ccc(S(=O)(=O)CCCO)c(F)c1,130
10,O=C(c1ccccc1)C(c1ccccc1)(c1ccccc1)c1ccccc1,182
11,CCOC(=O)Cn1cc(Cl)c(=O)c(Cl)c1,209 to 211
12,Oc1nnc(C2c3ccccc3Oc3ccccc32)o1,335 to 337
13,CCCCCCCCCCCO,19
14,CCN(CC)CCNC(=O)c1cc(S(C)(=O)=O)ccc1OC,124
15,O=C(O)c1ccc(Oc2ccccn2)cc1,174 to 175
16,O=c1cccccc1,-7
17,O=C(O)Cc1cc(O)ccc1O,153
18,C1CCC(CCCCCC2CCCCC2)CC1,-13.6
19,C/C=C/C#N,-51.5
20,Cc1cc(-c2ccc(N=C=O)c(C)c2)ccc1N=C=O,71
21,COc1ccc(N/C=C2\C(=O)C3(C)CCC2C3(C)C)cc1 (configuration not stated),171
22,Cc1c(C)c(CCl)c(C)c(C)c1CCl,194
23,Cc1ccc2ccccc2c1N,32
